Laboratory results: US20070128217A1 (priority 2003, published 2007)

How the values were obtained:
[1] = system: rabbit serum obtained by immunizing a rabbit with the SARS-CoV strain Frankfurt 1; type: binding; set-up: Binding of a rabbit serum to linear peptides / Binding of a rabbit serum to looped peptides / Rabbit serum linear peptides / Rabbit serum looped peptides / Binding of a rabbit serum to linear peptides of protein N of SARS-CoV Urbani (Rabbit serum linear peptides) / Binding of a rabbit serum to looped/cyclic peptides of protein N of SARS-CoV Urbani (Rabbit serum looped peptides): unit not given here
[2] = system: recombinant human anti-SARS-CoV antibody 03-018; type: binding; set-up: Binding of antibody 03-018 to linear peptides of the N protein of SARS-CoV Urbani / Binding of antibody 03-018 to looped/cyclic peptides of the N protein of SARS-CoV Urbani: unit not given here
[3] = system: control sera (pooled serum of ten healthy LUMC hospital workers; commercial negative donor pooled serum from the Dutch bloodbank); type: binding, human; set-up: Binding of Control serum LUMC to linear peptides / Binding of Control serum Blood-bank to linear peptides / Binding of Control serum LUMC to looped peptides / Binding of Control Serum Blood-Bank to Looped peptides / Binding of Control serum LUMC to linear peptides of the protein M of SARS-CoV Urbani / Binding of Control serum Blood-bank to linear peptides of the protein M of SARS-CoV Urbani / Binding of Control serum LUMC to looped peptides of the protein M of SARS-CoV Urbani / Binding of Control Serum Blood-Bank to Looped peptides of the protein M of SARS-CoV Urbani: unit not given here
[4] = system: antibodies in sera from SARS patients (sera 1a, 1b, 2, 6, 37, 62, London, SARS-yellow, SARS-green); type: binding, human; set-up: Binding of serum 6 to linear peptides of protein X1 of SARS-CoV Urbani / Binding of serum 37 to linear peptides of protein X1 of SARS-CoV Urbani / Binding of serum 6 to looped/cyclic peptide (PEPSCAN-ELISA) / Binding of serum 37 to looped/cyclic peptide (PEPSCAN-ELISA) / Binding of serum 37 to looped/cyclic peptides of protein X1 of SARS-CoV Urbani / Binding of serum 6 to linear peptides of protein X2 / Binding of serum 37 to linear peptides of protein X2 / Binding of serum 37 to looped/cyclic peptides of protein X2 of SARS-CoV Urbani / Binding of serum 6 to linear peptides of protein M of SARS-CoV Urbani / Binding of serum 37 to linear peptides of protein M of SARS-CoV Urbani / Binding of serum 6 to looped/cyclic peptides of protein M of SARS-CoV Urbani / Binding of serum 37 to looped/cyclic peptides of protein M of SARS-CoV Urbani / Binding of serum 6 to linear peptides of protein X3 of SARS-CoV Urbani / Binding of serum 37 to linear peptides of protein X3 of SARS-CoV Urbani / Binding of serum 37 to looped/cyclic peptides of protein X3 of SARS-CoV Urbani / Binding of serum 6 to linear peptides of protein X4 of SARS-CoV Urbani / Binding of serum 37 to linear peptides of protein X4 of SARS-CoV Urbani / Binding of serum 37 to looped/cyclic peptides of protein X4 of SARS-CoV Urbani / Binding of serum 6 to linear peptides of protein X5 of SARS-CoV Urbani / Binding of serum 37 to linear peptides of protein X5 of SARS-CoV Urbani / Binding of serum 37 to looped/cyclic peptides of protein X5 of SARS-CoV Urbani / Binding of serum 6 to linear peptides of protein N of SARS-CoV Urbani / Binding of serum 37 to linear peptides of protein N of SARS-CoV Urbani / Binding of serum 6 to linear peptide (PEPSCAN-ELISA) / Binding of serum 1a to looped/cyclic peptides of protein N of SARS-CoV Urbani / Binding of serum 1b to looped/cyclic peptides of protein N of SARS-CoV Urbani / Binding of serum 2 to looped/cyclic peptides of protein N of SARS-CoV Urbani / Binding of serum 6 to looped/cyclic peptides of protein N of SARS-CoV Urbani / Binding of serum 37 to looped/cyclic peptides of protein N of SARS-CoV Urbani / Binding of serum 62 to looped/cyclic peptides of protein N of SARS-CoV Urbani / Binding of serum London to looped/cyclic peptides of protein N of SARS-CoV Urbani / Binding of serum SARS-green to looped/cyclic peptides of protein N of SARS-CoV Urbani: unit not given here

| Sequence | Binding of a rabbit serum to linear peptides of protein N of SARS-CoV Urbani (Rabbit serum linear peptides) [1] | Binding of a rabbit serum to looped/cyclic peptides of protein N of SARS-CoV Urbani (Rabbit serum looped peptides) [1] | Binding of antibody 03-018 to linear peptides of the N protein of SARS-CoV Urbani [2] | Binding of antibody 03-018 to looped/cyclic peptides of the N protein of SARS-CoV Urbani [2] | Binding of Control Serum Blood-Bank to Looped peptides [3] | Binding of Control serum Blood-bank to linear peptides [3] | Binding of Control serum LUMC to linear peptides [3] | Binding of Control serum LUMC to looped peptides [3] | Binding of serum 1a to linear peptides of protein N of SARS-CoV Urbani [4] | Binding of serum 1a to looped/cyclic peptides of protein N of SARS-CoV Urbani [4] | Binding of serum 1b to linear peptides of protein N of SARS-CoV Urbani [4] | Binding of serum 1b to looped/cyclic peptides of protein N of SARS-CoV Urbani [4] | Binding of serum 2 to linear peptides of protein N of SARS-CoV Urbani [4] | Binding of serum 2 to looped/cyclic peptides of protein N of SARS-CoV Urbani [4] | Binding of serum 6 to looped/cyclic peptides of protein N of SARS-CoV Urbani [4] | Binding of serum 37 to looped/cyclic peptides of protein N of SARS-CoV Urbani [4] | Binding of serum 62 to looped/cyclic peptides of protein N of SARS-CoV Urbani [4] | Binding of serum London to looped/cyclic peptides of protein N of SARS-CoV Urbani [4] | Binding of serum SARS-green to looped/cyclic peptides of protein N of SARS-CoV Urbani [4] | Binding of serum SARS-yellow to looped/cyclic peptides of protein N of SARS-CoV Urbani [4] | further results |
| --- | --- | --- | --- | --- | --- | --- | --- | --- | --- | --- | --- | --- | --- | --- | --- | --- | --- | --- | --- | --- | --- |
| GPEASLPYGANKEGI | 0.1 | 0.3 | 0.1 | 0.2 | 0.6 | 0.9 | 0.9 | 0.8 | 0.3 | 0.3 | 0.2 | 0.2 | 0.3 | 0.4 | 0.2 | 0.6 | 0.5 | 0.4 | 0.5 | 0.3 | Binding of serum 6 to linear peptides of protein N of SARS-CoV Urbani [4]: 0.3; Binding of serum 37 to linear peptides of protein N of SARS-CoV Urbani [4]: 0.8; Binding of serum 62 to linear peptides of protein N of SARS-CoV Urbani [4]: 0.9; Binding of serum London to linear peptides of protein N of SARS-CoV Urbani [4]: 0.6; Binding of serum SARS-green to linear peptides of protein N of SARS-CoV Urbani [4]: 0.7; Binding of serum SARS-yellow to linear peptides of protein N of SARS-CoV Urbani [4]: 0.6 |
| QRSAPRITFGGPTDS | 0.3 | 1.2 | – | – | 0.7 | 0.6 | 0.5 | 0.7 | 0.2 | 0.4 | 0.1 | 0.3 | 0.1 | 0.4 | 0.4 | 0.7 | 0.5 | 0.9 | 0.4 | 0.6 | Recognition of the peptide by antibody 03-018 [2]: recognized; Binding of serum 6 to linear peptides of protein N of SARS-CoV Urbani [4]: 0.1; Binding of serum 37 to linear peptides of protein N of SARS-CoV Urbani [4]: 0.6; Binding of serum 62 to linear peptides of protein N of SARS-CoV Urbani [4]: 0.6; Binding of serum London to linear peptides of protein N of SARS-CoV Urbani [4]: 0.5; Binding of serum SARS-green to linear peptides of protein N of SARS-CoV Urbani [4]: 0.2; Binding of serum SARS-yellow to linear peptides of protein N of SARS-CoV Urbani [4]: 0.5 |
| WLTYHGAIKLDDKDP | 0.2 | 0.2 | 0.1 | 0.2 | – | – | – | – | 0.3 | 0.2 | 0.2 | 0.1 | 0.2 | 0.2 | 0.1 | 0.4 | 0.3 | 0.3 | 0.0 | 0.2 | Control Serum Blood-Bank Looped peptides [3]: 0.4; Control serum Blood-bank linear peptides [3]: 0.8; Control serum LUMC linear peptides [3]: 0.7; Control serum LUMC looped peptides [3]: 0.4; Binding of serum 6 to linear peptides of protein N of SARS-CoV Urbani [4]: 0.2; Binding of serum 37 to linear peptides of protein N of SARS-CoV Urbani [4]: 0.7; Binding of serum 62 to linear peptides of protein N of SARS-CoV Urbani [4]: 0.8; Binding of serum London to linear peptides of protein N of SARS-CoV Urbani [4]: 0.6; Binding of serum SARS-green to linear peptides of protein N of SARS-CoV Urbani [4]: 0.3; Binding of serum SARS-yellow to linear peptides of protein N of SARS-CoV Urbani [4]: 0.7 |
| GSRGGSQASSRSSSR | 0.3 | 0.6 | 0.1 | 0.2 | 1.1 | 0.7 | 0.7 | 0.7 | – | 0.6 | – | 0.8 | – | 0.7 | 0.5 | 0.9 | 0.7 | 0.7 | 1.2 | 1.6 | Binding of serum 1a to linear peptide (PEPSCAN-ELISA) [4]: 0.3; Binding of serum 1b to linear peptide (PEPSCAN-ELISA) [4]: 0.1; Binding of serum 2 to linear peptide (PEPSCAN-ELISA) [4]: 0.3; Binding of serum 6 to linear peptide (PEPSCAN-ELISA) [4]: 0.4; Binding of serum 37 to linear peptide (PEPSCAN-ELISA) [4]: 0.7; Binding of serum 62 to linear peptide (PEPSCAN-ELISA) [4]: 0.8; Binding of serum London to linear peptide (PEPSCAN-ELISA) [4]: 0.5; Binding of serum SARS-green to linear peptide (PEPSCAN-ELISA) [4]: 0.2; Binding of serum SARS-yellow to linear peptide (PEPSCAN-ELISA) [4]: 0.8 |
